Measured values taken from US9133209B2, “Insecticidal 4-amino-thieno[2,3-D]-pyrimidine compounds and methods of their use” (priority 2009, dated 2015).

Tests used:
Type in all cases: in vivo
[1] = test system: Cowpea Aphid (aphis craccivora); assay: Cowpea aphid spray test on potted cowpea plants; conditions: for activity in [%]: Cow pea aphid, 300 ppm, scale 0% no biological activity to 100% total control; for mortality at 300 ppm: Aphis craccivora, cowpea aphid on potted cowpea plants, sprayed, assessed after 24, 72 and 120 hours, read-out: mortality in comparison with untreated controls
Experimental: (§1) Under general conditions, if not otherwise specified, most test solutions are prepared as follow: The active compound is dissolved at the desired concentration in a mixture of 1:1 (vol:vol) distilled water:acetone. The test solution is prepared at the day of use.
(§2) Test solutions are prepared in general at concentrations of 1000 ppm, 500 ppm, 300 ppm, 100 ppm and 30 ppm (wt/vol).
B.1 Cowpea Aphid (aphis craccivora)
Potted cowpea plants colonized with approximately 100-150 aphids of various stages were sprayed after the pest population has been recorded. Population reduction was assessed after 24, 72, and 120 hours.

[2] = test system: Spider Mite (Tetranychus spp.); assay: Spider mite contact/oral activity on potted cotton plants; conditions: for activity in [%]: Spider mite, 300 ppm, scale 0% no biological activity to 100% total control; for mortality at 300 ppm: Tetranychus, po, spider mites on potted cotton plants, sprayed, assessed after 24, 72 and 120 hours, read-out: mortality in comparison with untreated controls
Experimental: as §1, §2
B.2 Spider Mite (Tetranychus spp.)
Potted cotton plants colonized with approximately 50 mites of various stages are sprayed after the pest population has been recorded. Population reduction (or increase) after 24, 72, and 120 hours is assessed.

[3] = test system: Rice Brown Plant Hopper (Nilaparvata lugens); assay: Rice brown plant hopper test on sprayed rice seedlings; conditions: for activity in [%]: Nilaparvata lugens, 300 ppm, scale 0% no biological activity to 100% total control; for mortality at 300 ppm: Nilaparvata lugens adults on sprayed rice seedlings, 72 hours, read-out: mortality in comparison with untreated controls
Experimental: B.3 Rice Brown Plant Hopper (Nilaparvata lugens)
Rice seedlings were cleaned and washed 24 hours before spraying. The active compounds were formulated in 50:50 acetone:water (vol:vol) and 0.1% vol/vol surfactant (EL 620) was added. Potted rice seedlings were sprayed with 5 ml test solution, air dried, placed in cages and inoculated with 10 adults. Treated rice plants were kept at about 28-29° C. and relative humidity of about 50-60%. Percent mortality was recorded after 72 hours.

[4] = test system: Yellow Fever Mosquito (Aedes aegypti) neonate larvae; assay: Yellow fever mosquito larval motility assay in microtiter plates
Experimental: B.4. Activity Against Yellow Fever Mosquito (Aedes aegypti)
The compounds were formulated in 100% DMSO and were tested in microtiter plates containing 180 ul 1× Luria Broth media and 10 neonate A. aegypti larvae. The efficacy of a compound was determined based on the motility of the larvae as compared to average motility of control wells containing DMSO only. Compounds with >80% reduction in motility at a concentration of 10 ppm were tested in a dose response assay to determine EC50 values.

[5] = test system: Ctenocephalides felis fleas; assay: Rat ectoparasiticide model (flea infestation, topical treatment); conditions: for Efficacy in [%]: Ctenocephalides felis on rats; for reduction of flea counts (% efficacy): rats, topical, 48 hours post-treatment, average, n=2 replicas
Experimental: B.5. Activity in Rat Ectoparasiticide Model
Rats were infested with 50 Ctenocephalides felis fleas. Approximately twenty four hours later rats (3 per group) were treated topically with test compounds at doses of 20 mg/kg or 10 mg/kg body weight. Placebo (vehicle) and positive control groups were included in each study. Forty eight hours post-treatment, fleas were collected from each rat using a flea comb. The percent efficacy per treatment group was calculated using the following formula: % efficacy=100×(C−T)/C
where C is the geometric mean of live fleas recovered in the placebo group and T is the geometric mean of live fleas recovered in the respective treatment group.

| SMILES | activity in [%] [1] [%] | activity in [%] [2] [%] | activity in [%] [3] [%] | mortality at 300 ppm [1] [%] | also measured |
| --- | --- | --- | --- | --- | --- |
| C[C@H](Nc1ncnc2scc(Cl)c12)c1ccc(SC(F)(F)F)cc1 [C.3-S, (5-Chloro-thieno[2,3-d]pyrimidin-4-yl)-[(S)-1-(4-trifluoromethylsulfanyl-phenyl)-ethyl]-amine] | 100 | 90 | 100 | – | EC50 (section headed 'Activity at 1 [ppm]') [4]: 0.21 ppm; Efficacy in [%] ([5]; dosage 10 mg/kg): 71%; Efficacy in [%] ([5]; dosage 20 mg/kg): 89%; reduction of flea counts (% efficacy) ([5]; 10 mg/kg): 71%; reduction of flea counts (% efficacy) ([5]; 20 mg/kg): 89% |
| FC(F)(F)Sc1ccc(CNc2ncnc3scc(Cl)c23)cc1 [C.1] | – | – | – | > 80 | – |
| CSc1ccc(C(C)Nc2ncnc3scc(Cl)c23)cc1 (centres unmarked) [CE.1, reference compound] | – | – | 0 | – | – |
| CC(Nc1ncnc2scc(Cl)c12)c1ccc(SCC(F)(F)F)cc1 (centres unmarked) [C.5] | – | – | – | > 80 | – |
| CC(Nc1ncnc2scc(Cl)c12)c1ccc(SC(F)(F)C(F)(F)F)cc1 (centres unmarked) [C.6] | – | – | – | > 80 | mortality at 300 ppm [2]: > 80%; mortality at 300 ppm [3]: > 80% |
| CC(Nc1ncnc2scc(Cl)c12)c1ccc(SC(F)(F)F)cc1 (centres unmarked) [C.3] | 100 | 90 | 100 | > 80 | mortality at 300 ppm [2]: > 80%; mortality at 300 ppm [3]: > 80%; EC50 (section headed 'Activity at 1 [ppm]') [4]: 0.29 ppm |
| CC(Nc1ncnc2scc(Cl)c12)c1ccc(SC(F)F)cc1 (centres unmarked) [C.2] | – | – | – | > 80 | – |
| C[C@H](Nc1ncnc2scc(Cl)c12)c1ccc(OC(F)(F)F)cc1 [CE.2, reference compound] | – | 50 | – | – | Efficacy in [%] ([5]; dosage 10 mg/kg): 70%; Efficacy in [%] ([5]; dosage 20 mg/kg): 82% |
| CC(Nc1ncnc2scc(Cl)c12)c1ccc([S+]([O-])C(F)(F)F)cc1 (centres unmarked) [C.4] | – | – | – | > 80 | – |
| C[C@@H](Nc1ncnc2scc(Cl)c12)c1ccc(SC(F)(F)F)cc1 [C.3-R] | 0 | 0 | 0 | – | – |
